Measurements as given in patent US7601737B2, “Isotopically substituted proton pump inhibitors” (priority 2005, dated 2009).
Where two headings read alike, the source gives them in different places. Values belong to the compound of their own block, whether it stands above or below them.

Tests used:
[1] = tested on: human cryopreserved hepatocytes
Protocol: (§1) Following the evaluation of the metabolic clearance of the compounds according to the invention via P450 enzymes, the formation kinetics of the main metabolite identified in humans, i.e. M2 (5-(difluoromethoxy)-2-[[(3-methoxy-4-sulfate-2-pyridyl)-methyl]sulfinyl]-1H-benzimidazole) was determined. Because the generation of M2 involves the oxidation of the 4-methoxy-pyridyl group by CYP2C19 and subsequent conjugation with 3′-phosphoadenosine-5′-phosphosulfate (PAPS) by an unidentified sulphotransferase, human cryopreserved hepatocytes were used since both phase I and phase II enzymes are functional in this in vitro system.
(§2) M2 formation rate under these conditions was linear up to 60 min. The M2 formation rate was determined at nine different compound concentrations (0, 0.5, 1.0, 2.5, 5.0, 10.0, 25.0, 50.0 and 100 μMol/L) incubated in duplicate for 60 min at 37° C. M2 was quantified using LC-MS/MS. M2 isolated from human urine was used as an external standard. The concentration to reach the half-maximal formation rate (KM-value) and the maximal formation rate (Vmax) were obtained by non-linear regression analysis using the Michaelis-Menten equation. The intrinsic clearance (Clint) was obtained dividing Vmax over KM.

[2] = in vitro; conditions: human, hepatocytes
Protocol: as §1, §2

[3] = Table 2, relative to rac. pantoprazole
[4] = Table 3, relative to rac. pantoprazole

% Σ Clint (S)-pantoprazole ([1]; human, hepatocytes): 100%
Intrinsic clearance (Clint) ([1]; human, hepatocytes): 16.1 μl/min/10^6 cells
Compound: COc1ccnc(C[S@+]([O-])c2nc3cc(OC(F)F)ccc3[n-]2)c1OC.COc1ccnc(C[S@+]([O-])c2nc3cc(OC(F)F)ccc3[n-]2)c1OC.O.O.O.[Na+].[Na+] [(S)-pantoprazole Na 1.5 H2O, reference compound]

% Σ Clint (S)-pantoprazole ([1]; Table 3, relative to (S)-pantoprazole): 21%
hepatocyte CLint [2]: 3.4 µL/min/1e6 cells
Compound: [2H]C([2H])([2H])Oc1ccnc(C[S@+]([O-])c2nc3cc(OC(F)F)ccc3[nH]2)c1OC.[Na] [Example 36, (S)-5-Difluoromethoxy-2-[(3-methoxy-4-trideuteriomethoxy-2-pyridinyl)methylsulfinyl]-1H-benzimidazole sodium salt]

Substrate concentrations at which formation of M2 appeared to be inhibited ([1]; human, 60 min): above 100 μM
% Σ Clint rac. Pantoprazole ([1]; human, hepatocytes): 79%
% Σ Clint rac. pantoprazole ([1]; human, hepatocytes): 79%
Intrinsic clearance (Clint) ([1]; human, hepatocytes): 22.0 μl/min/10^6 cells
hepatocyte CLint [2]: 22 µL/min/1e6 cells
Compound: [2H]C([2H])([2H])Oc1c(OC)ccnc1C[S+]([O-])c1nc2cc(OC(F)F)ccc2[nH]1 (racemic) [Example 22, rac-5-Difluoromethoxy-2-[(4-methoxy-3-trideuteriomethoxy-2-pyridinyl)methylsulfinyl]-1H-benzimidazole]

Compound: O.[2H]COc1ccnc(C[S+]([O-])c2nc3cc(OC(F)F)ccc3[nH]2)c1OC.[Na] (racemic) [Example 25, rac-5-Difluoromethoxy-2-[(3-methoxy-4-monodeuteriomethoxy-2-pyridinyl)methylsulfinyl]-1H-benzimidazole sodium salt mono hydrate]
% Σ Clint rac. pantoprazole [1, 3]: 63%
Intrinsic clearance (Clint) ([1]; Table 3, pooled human hepatocytes, M2 formation, Vmax over KM): 17.7 μl/min/10^6 cells
% Σ Clint rac. Pantoprazole [1, 4]: 63%
hepatocyte CLint [2]: 17.7 µL/min/1e6 cells

Compound: O.[2H]C([2H])([2H])Oc1ccnc(C[S+]([O-])c2nc3cc(OC(F)F)ccc3[nH]2)c1OC.[Na] (racemic) [Example 32, rac-5-Difluoromethoxy-2-[(3-methoxy-4-trideuteriomethoxy-2-pyridinyl)methylsulfinyl]-1H-benzimidazole sodium salt mono hydrate]
% Σ Clint rac. Pantoprazole [1, 4]: 18%
hepatocyte CLint [2]: 5.1 µL/min/1e6 cells

Compound: COc1ccnc(C[S+]([O-])c2nc3ccc(OC(F)F)cc3[nH]2)c1OC (racemic) [rac. pantoprazole Na 1.5 H2O, 5-difluoromethoxy-2-[(3,4-dimethoxy-2-pyridinyl)methylsulphinyl]-1H-benzimidazole, reference compound]
% Σ Clint rac. Pantoprazole ([1]; human, hepatocytes): 100%
% Σ Clint rac. pantoprazole ([1]; human, hepatocytes): 100%
Intrinsic clearance (Clint) ([1]; human, hepatocytes): 27.9 μl/min/10^6 cells
hepatocyte CLint [2]: 27.9 µL/min/1e6 cells

% Σ Clint (S)-pantoprazole ([1]; Table 2, relative to (S)-pantoprazole): 21%
Compound: [2H]C([2H])([2H])Oc1ccnc(C[S@+]([O-])c2nc3cc(OC(F)F)ccc3[nH]2)c1OC [Example 5, Sodium (S)-{[5-(difluoromethoxy)]-2-[(3-methoxy-4-trideuteriomethoxy-2-pyridinyl)methylsulphinyl]-1H-benzimidazolide} hydrate]

Compound: Sodium (R/S)-{[5-(difluoromethoxy)]-2-[(3-methoxy-4-trideuteriomethoxy-2-pyridinyl)methylsulphinyl]-1H-benzimidazolide} hydrate [Example 6]
Intrinsic clearance (Clint) ([1]; Table 2, pooled human hepatocytes, M2 formation, Vmax over KM): 5.1 μl/min/10^6 cells
% Σ Clint rac. pantoprazole [1, 3]: 20%
Effect of increasing number of [2H] atoms in the 4-methoxy-pyridyl position on M2 formation rates ([1]; series [1H], [2H1], [2H2], [2H3]): decreased M2 formation rates

% Σ Clint (R)-pantoprazole ([1]; human, hepatocytes): 100%
Intrinsic clearance (Clint) ([1]; human, hepatocytes): 25.7 μl/min/10^6 cells
Compound: COc1ccnc(C[S@@+]([O-])c2nc3cc(OC(F)F)ccc3[n-]2)c1OC.COc1ccnc(C[S@@+]([O-])c2nc3cc(OC(F)F)ccc3[n-]2)c1OC.O.O.O.[Na+].[Na+] [(R)-pantoprazole Na 1.5 H2O, reference compound]

Compound: O.O.O.[2H]C([2H])([2H])Oc1ccnc(C[S@@+]([O-])c2nc3cc(OC(F)F)ccc3[nH]2)c1OC.[Na] [Example 30, (R)-5-Difluoromethoxy-2-[(3-methoxy-4-trideuteriomethoxy-2-pyridinyl)methylsulfinyl]-1H-benzimidazole sodium salt trihydrate]
% Σ Clint (R)-pantoprazole ([1]; Table 2, relative to (R)-pantoprazole): 21%
